The subject of the test is BDF1 mice, s.c. Lewis lung carcinoma, T/C %. Nature of the test: NCI In Vivo Anticancer Drug Screen. Data for tumor model Lewis Lung Carcinoma (subcutaneous) in B6D2F1 (BDF1) mice. The essentials:
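The value reflects a ratio in which the treated cohort's survival time or tumour size is compared against mice receiving only vehicle.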

The mark [1] stands for this setting: endpoint: mean tumor weight, dose: 133.0 mg/kg/injection, schedule: Q01DX011 (ip), vehicle: other, higher = larger tumour.
[2] abbreviates: endpoint: mean tumor weight, dose: 200.0 mg/kg/injection, schedule: Q01DX011 (ip), vehicle: other, higher = larger tumour.
[3] abbreviates: endpoint: mean tumor weight, dose: 300.0 mg/kg/injection, schedule: Q01DX011 (ip), vehicle: other, higher = larger tumour.
The mark [4] stands for this setting: endpoint: median survival time, dose: 50.0 mg/kg/injection, schedule: Q01DX009 (ip), vehicle: Klucel (hydroxypropylcellulose) (HPC), higher = longer survival.
The mark [5] stands for this setting: endpoint: median survival time, dose: 100.0 mg/kg/injection, schedule: Q01DX009 (ip), vehicle: Klucel (hydroxypropylcellulose) (HPC), higher = longer survival.
The mark [6] stands for this setting: endpoint: median survival time, dose: 200.0 mg/kg/injection, schedule: Q01DX009 (ip), vehicle: Klucel (hydroxypropylcellulose) (HPC), higher = longer survival.
Where [7] appears, read: endpoint: mean tumor weight, dose: 62.5 mg/kg/injection, schedule: Q01DX011 (ip), vehicle: carboxymethylcellulose (CMC), higher = larger tumour.
Setting [8] is: endpoint: mean tumor weight, dose: 125.0 mg/kg/injection, schedule: Q01DX011 (ip), vehicle: carboxymethylcellulose (CMC), higher = larger tumour.

Each structure is given as a SMILES string. Where “and” joins values, the source holds several entries; their conditions need not be identical. Identical values can stand only once. Records with an inconclusive call do not appear.

With `C1=Cc2ccccc2CC1`, the T/C is 121 % of control under setting [1], 46 % of control under setting [2] and 45 % of control under setting [3].

On to `NC1(C(=O)O)CCCC1`, for which the T/C was 38 % of control and 61 % of control (endpoint: mean tumor weight, dose: 30.0 mg/kg/injection, schedule: Q01DX011 (ip), vehicle: saline, higher = larger tumour); 25 % of control and 30 % of control (endpoint: mean tumor weight, dose: 60.0 mg/kg/injection, schedule: Q01DX011 (ip), vehicle: saline, higher = larger tumour); 8 % of control (endpoint: mean tumor weight, dose: 120.0 mg/kg/injection, schedule: Q01DX011 (ip), vehicle: saline, higher = larger tumour); 96 % of control (endpoint: median survival time, dose: 1.6 mg/kg/injection, schedule: Q01DX009 (ip), vehicle: carboxymethylcellulose (CMC), higher = longer survival); 123 % of control (endpoint: median survival time, dose: 6.25 mg/kg/injection, schedule: Q01DX009 (ip), vehicle: carboxymethylcellulose (CMC), higher = longer survival).

`CCCCCC/C=C/C#CCCCCCCCC(=O)O`: the T/C (endpoint: median survival time, dose: 18.75 mg/kg/injection, schedule: Q01DX009 (ip), vehicle: Klucel (hydroxypropylcellulose) (HPC), higher = longer survival) is 97 % of control; the T/C (endpoint: median survival time, dose: 37.5 mg/kg/injection, schedule: Q01DX009 (ip), vehicle: Klucel (hydroxypropylcellulose) (HPC), higher = longer survival) is 90 % of control and 91 % of control; the T/C (endpoint: median survival time, dose: 75.0 mg/kg/injection, schedule: Q01DX009 (ip), vehicle: Klucel (hydroxypropylcellulose) (HPC), higher = longer survival) was 102 % of control and 111 % of control.

Turning to `CC1(C)C(CC(=O)O)CC1C(=O)O` (configuration not stated), the T/C (endpoint: mean tumor weight, dose: 166.0 mg/kg/injection, schedule: Q01DX011 (ip), vehicle: other, higher = larger tumour) was 78 % of control.

`NC(CSC(c1ccccc1)(c1ccccc1)c1ccccc1)C(=O)O` (configuration not stated): the T/C was 115 % of control (endpoint: mean tumor weight, dose: 12.0 mg/kg/injection, schedule: Q01DX011 (ip), vehicle: methylcellulose (MC), higher = larger tumour); 120 % of control (endpoint: median survival time, dose: 8.0 mg/kg/injection, schedule: Q01DX009 (ip), vehicle: Klucel (hydroxypropylcellulose) (HPC), higher = longer survival); 112 % of control (endpoint: median survival time, dose: 32.0 mg/kg/injection, schedule: Q01DX009 (ip), vehicle: Klucel (hydroxypropylcellulose) (HPC), higher = longer survival).

Take `Cc1ccnc(NS(=O)(=O)c2ccc(N=Nc3nc4[nH]c(N)nc(=S)c4[nH]3)cc2)n1`: the T/C was 106 % of control (endpoint: median survival time, dose: 0.19 mg/kg/injection, schedule: Q01DX009 (ip), vehicle: Klucel (hydroxypropylcellulose) (HPC), higher = longer survival); 94 % of control (endpoint: median survival time, dose: 0.39 mg/kg/injection, schedule: Q01DX009 (ip), vehicle: Klucel (hydroxypropylcellulose) (HPC), higher = longer survival); 97 % of control (endpoint: median survival time, dose: 0.78 mg/kg/injection, schedule: Q01DX009 (ip), vehicle: Klucel (hydroxypropylcellulose) (HPC), higher = longer survival); 87 % of control and 103 % of control (endpoint: median survival time, dose: 1.56 mg/kg/injection, schedule: Q01DX009 (ip), vehicle: Klucel (hydroxypropylcellulose) (HPC), higher = longer survival).

As to `COc1cc(O)c2c(c1)Cc1cc(C)cc(O)c1C2=O`, the T/C reads like this: (endpoint: median survival time, dose: 0.1 mg/kg/injection, schedule: Q01DX009 (ip), vehicle: saline with Tween-80, higher = longer survival) 117 % of control; (endpoint: median survival time, dose: 0.2 mg/kg/injection, schedule: Q01DX009 (ip), vehicle: saline with Tween-80, higher = longer survival) 120 % of control and 122 % of control; (endpoint: median survival time, dose: 0.4 mg/kg/injection, schedule: Q01DX009 (ip), vehicle: saline with Tween-80, higher = longer survival) 108 % of control; (endpoint: median survival time, dose: 6.25 mg/kg/injection, schedule: Q01DX009 (ip), vehicle: saline with Tween-80, higher = longer survival) 110 % of control.

Take `CNC(=O)Nc1ccccc1C(=O)NN`: the T/C reads like this: (endpoint: median survival time, dose: 25.0 mg/kg/injection, schedule: Q01DX009 (ip), vehicle: Klucel (hydroxypropylcellulose) (HPC), higher = longer survival) 113 % of control; under setting [4], 96 % of control; under setting [5], 102 % of control; under setting [6], 93 % of control.

For the molecule `OCC1=CCN2CC[C@@H](O)[C@@H]12`, the T/C was 122 % of control (endpoint: mean tumor weight, dose: 25.0 mg/kg/injection, schedule: Q01DX011 (ip), vehicle: carboxymethylcellulose (CMC), higher = larger tumour); 117 % of control (endpoint: mean tumor weight, dose: 50.0 mg/kg/injection, schedule: Q01DX011 (ip), vehicle: carboxymethylcellulose (CMC), higher = larger tumour); 111 % of control (endpoint: mean tumor weight, dose: 100.0 mg/kg/injection, schedule: Q01DX011 (ip), vehicle: carboxymethylcellulose (CMC), higher = larger tumour); 106 % of control (endpoint: mean tumor weight, dose: 200.0 mg/kg/injection, schedule: Q01DX011 (ip), vehicle: carboxymethylcellulose (CMC), higher = larger tumour).

Consider `O=C1C2C3CCC(O3)C2C(=O)N1c1nccs1` (configuration not stated), for which the T/C under setting [7] is 75 % of control and the T/C under setting [8] is 71 % of control.

As for `CS(=O)(=O)OCCCNCCCOS(C)(=O)=O`, the T/C was 63 % of control (endpoint: mean tumor weight, dose: 10.0 mg/kg/injection, schedule: Q01DX011 (ip), vehicle: saline, higher = larger tumour); 70 % of control (endpoint: mean tumor weight, dose: 20.0 mg/kg/injection, schedule: Q01DX011 (ip), vehicle: saline, higher = larger tumour); 42 % of control (endpoint: mean tumor weight, dose: 40.0 mg/kg/injection, schedule: Q01DX011 (ip), vehicle: saline, higher = larger tumour); 105 % of control (endpoint: median survival time, dose: 10.0 mg/kg/injection, schedule: Q01DX009 (ip), vehicle: saline, higher = longer survival); 101 % of control (endpoint: median survival time, dose: 20.0 mg/kg/injection, schedule: Q01DX009 (ip), vehicle: saline, higher = longer survival).

On to `Cc1ccccn1`, for which the T/C is 93 % of control under setting [7]; 112 % of control under setting [8]; 94 % of control (endpoint: mean tumor weight, dose: 250.0 mg/kg/injection, schedule: Q01DX011 (ip), vehicle: carboxymethylcellulose (CMC), higher = larger tumour).

Consider `N=C(N)NC(=N)Nc1ccc(NC(=O)Nc2ccc(Nc3c4ccccc4nc4cc([N+](=O)[O-])ccc34)cc2)cc1`, for which the T/C is, setting by setting: (endpoint: median survival time, dose: 1.56 mg/kg/injection, schedule: Q01DX009 (ip), vehicle: water, higher = longer survival) 111 % of control; (endpoint: median survival time, dose: 6.25 mg/kg/injection, schedule: Q01DX009 (ip), vehicle: water, higher = longer survival) 108 % of control; (endpoint: median survival time, dose: 12.5 mg/kg/injection, schedule: Q01DX009 (ip), vehicle: water, higher = longer survival) 112 % of control; (endpoint: median survival time, dose: 25.0 mg/kg/injection, schedule: Q01DX009 (ip), vehicle: water, higher = longer survival) 103 % of control; (endpoint: median survival time, dose: 50.0 mg/kg/injection, schedule: Q01DX009 (ip), vehicle: water, higher = longer survival) 112 % of control.

Consider `O=c1[nH]cnc2nc[nH]c12`, for which the T/C runs as follows: (endpoint: mean tumor weight, dose: 62.5 mg/kg/injection, schedule: Q01DX011 (ip), vehicle: saline, higher = larger tumour) 121 % of control; (endpoint: mean tumor weight, dose: 125.0 mg/kg/injection, schedule: Q01DX011 (ip), vehicle: saline, higher = larger tumour) 108 % of control; (endpoint: mean tumor weight, dose: 250.0 mg/kg/injection, schedule: Q01DX011 (ip), vehicle: saline, higher = larger tumour) 107 % of control; (endpoint: mean tumor weight, dose: 500.0 mg/kg/injection, schedule: Q01DX011 (ip), vehicle: saline, higher = larger tumour) 76 % of control.

Take `COc1ccc([C@@H]2c3cc4c(cc3C[C@H]3COC(=O)[C@@H]32)OCO4)cc1OC`: the T/C is, setting by setting: (endpoint: median survival time, dose: 11.0 mg/kg/injection, schedule: Q01DX009 (ip), vehicle: saline with Tween-80, higher = longer survival) 98 % of control; (endpoint: median survival time, dose: 22.0 mg/kg/injection, schedule: Q01DX009 (ip), vehicle: saline with Tween-80, higher = longer survival) 100 % of control; (endpoint: median survival time, dose: 33.0 mg/kg/injection, schedule: Q01DX009 (ip), vehicle: saline with Tween-80, higher = longer survival) 97 % of control.

On to `C/C=C(\C)C(=O)OC1C(C)C2(O)C(C=C(CO)CC3(O)C(=O)C(C)=CC32)C2C(C)(C)C12OC(=O)CCCCCCCCC` (configuration not stated), for which the T/C (endpoint: median survival time, dose: 0.13 mg/kg/injection, schedule: Q01DX009 (ip), vehicle: saline + alcohol, higher = longer survival) is 103 % of control; the T/C (endpoint: median survival time, dose: 0.25 mg/kg/injection, schedule: Q01DX009 (ip), vehicle: saline + alcohol, higher = longer survival) is 95 % of control; the T/C (endpoint: median survival time, dose: 0.5 mg/kg/injection, schedule: Q01DX009 (ip), vehicle: saline + alcohol, higher = longer survival) was 92 % of control.

Regarding `CN(C1=NS(=O)(=O)N=C(N(C)c2ccccc2)O1)c1ccccc1`, the T/C is 111 % of control (endpoint: median survival time, dose: 14.37 mg/kg/injection, schedule: Q01DX009 (ip), vehicle: Klucel (hydroxypropylcellulose) (HPC), higher = longer survival); 104 % of control (endpoint: median survival time, dose: 28.75 mg/kg/injection, schedule: Q01DX009 (ip), vehicle: Klucel (hydroxypropylcellulose) (HPC), higher = longer survival); 103 % of control (endpoint: median survival time, dose: 57.5 mg/kg/injection, schedule: Q01DX009 (ip), vehicle: Klucel (hydroxypropylcellulose) (HPC), higher = longer survival); 100 % of control (endpoint: median survival time, dose: 115.0 mg/kg/injection, schedule: Q01DX009 (ip), vehicle: Klucel (hydroxypropylcellulose) (HPC), higher = longer survival); 96 % of control (endpoint: median survival time, dose: 230.0 mg/kg/injection, schedule: Q01DX009 (ip), vehicle: Klucel (hydroxypropylcellulose) (HPC), higher = longer survival).

`COc1cc2nccc3c4ccccc4n(c1=O)c23`: the T/C was 114 % of control under setting [4], 110 % of control under setting [5] and 120 % of control under setting [6].

On to `Cc1nnc(N)s1`, for which the T/C runs as follows: under setting [1], 80 % of control; under setting [2], 77 % of control; under setting [3], 79 % of control.

Source of the values: PubChem BioAssay AID270 (DTP/NCI, 2004).
